Measured values reported in patent publication EP0070084A2, “Imidazoline derivatives” (BEECHAM GROUP PLC, priority 1981, dated 1983).
Where a name gives a salt, the structure may show the parent alone. Read-outs that look alike come from different tables or passages of the source.

Assays:
neonatal mice = assay: Sedative activity, observation of orally dosed mice; format: in vivo; details: 6 neonatal mice, at 1 mg/kg and at 10 mg/kg, observed for 2 hours versus control mice
Protocol: m-amino Clonidine was administered orally to 6 neonatal mice at 1 mg/kg and at 10 mg/kgwhichwere observed for 2 hours in comparison with control mice.

piglets = format: in vivo; details: groups of 2 piglets; for MEAN SCOUR SCORE ± SEM: score 0-3
[1] = 0.1 mg/kg p.o., duration of test 6 h
[2] = 0.1 mg/kg p.o., duration of test 12 h
[3] = 0.2 mg/kg p.o., duration of test 6 h

SMILES | sedation (neonatal mice) | o/o INHIBITION OF SCOUR (piglets; [1]) [o/o] | MEAN SCOUR SCORE ± SEM (piglets; [1]) | o/o INHIBITION OF SCOUR (piglets; [2]) [o/o] | MEAN SCOUR SCORE ± SEM (piglets; [2]) | o/o INHIBITION OF SCOUR (piglets; [3]) [o/o] | MEAN SCOUR SCORE ± SEM (piglets; [3]) | MEAN SCOUR SCORE ± SEM (piglets; 0.2 mg/kg p.o., duration of test 12 h) | o/o INHIBITION OF SCOUR (piglets; 0.2 mg/kg p.o., duration of test 12 h, P 0.05) [o/o] | MEAN SCOUR SCORE ± SEM (piglets; 1 mg/kg p.o., duration of test 6 h) | o/o INHIBITION OF SCOUR (piglets; 1 mg/kg p.o., duration of test 6 h, P 0.01) [o/o] | MEAN SCOUR SCORE ± SEM (piglets; 1 mg/kg p.o., duration of test 12 h) | o/o INHIBITION OF SCOUR (piglets; 1 mg/kg p.o., duration of test 12 h, P 0.05) [o/o]
Nc1ccc(Cl)c(N=C2NCCN2)c1Cl [Example 3, 2-(3-amino-2,6-dichlorophenylimino) imidazolidine] | marked sedation |  |  |  |  |  |  |  |  |  |  |  | 
Clc1cc(NCc2ccccc2)cc(Cl)c1N=C1NCCN1 [Example 4, 2-(4-Eenzylamino-2,6-dichlorophenylimino)imidazolidine_ hydrochloride] |  | 15 | 2.3 ± 0.5 | 10 | 1.9 ± 0.2 | 41 | 1.6 ± 0.1 | 1.2 ± 0.2 | 43 | 0.4 ± 0.4 | 85 | 1.1 ± 0.2 | 48
